Assay results published in paper PMC7531004, “Discovery of gramicidin A analogues with altered activities by multidimensional screening of a one-bead-one-compound library” (Nature Communications, 2020).
Where a SMILES comes first, the peptide text is derived from it. [ ]: non-standard residue; d: D form. The star is where a group is joined. NHCH2CH2OH = OCCN*; For = O=C*

Key:
[1] = H+/Na+ transport assay of bead-derived peptides (one-point); type: biochemical; design: key: relative activity; mean of two control wells = 1.00; conditions: bead-derived peptide solution, EYPC/EYPG LUVs;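 also: relative to parent gramicidin A activity set to 1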
Summary of the method: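 One-point screen: peptide + pyranine-loaded LUVs, 30 min RT with vortexing, 96-well. Read-out is fluorescence intensity scaled as 100 × (Ix – I0)/(Imax – I0). Imax from Triton X-100, I0 from untreated vesicles, and the mean of the two control wells is set to 1.00.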

[2] = system: Streptococcus pyogenes SSI-9; experiment: Antibacterial activity assay of bead-derived peptides (three concentrations); type: cell-based; design: key: +++: inhibition by the 640-fold diluted peptide solution; ++: inhibition by the 160-fold diluted solution; +: inhibition by the 40-fold diluted solution; -: no inhibition; conditions: S. pyogenes, bead-derived peptide solution, three concentrations
Summary of the method: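 Library peptide stock applied undiluted, 4-fold and 16-fold diluted in DMSO to S. pyogenes SSI-9 (2 × 10^5 CFU) in cation-adjusted Mueller Hinton broth with 5% laked horse blood. After 18 h at 37 °C, growth judged by visible cell precipitation.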

[3] = cell viability/%
Summary of the method: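 P388 cells at 1 × 10^4 cells/mL (final) were exposed to library peptides (stocks diluted 250-fold in RPMI1640/10% FBS) for 92 h at 37 °C, 5% CO2. Viable cells were counted by WST-1/1-methoxy PMS (4 h), absorbance 415 nm, and expressed as cell viability (%).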

Structure (SMILES) | H+/Na+ transport activity normalized against the value of 1 (1.00) [1] | antibacterial activity [2] | viability [3] [%]
CC(C)C[C@@H](NC(=O)[C@H](C)NC(=O)CNC(=O)[C@@H](NC=O)C(C)C)C(=O)N[C@@H](C)C(=O)N[C@@H](C(=O)N[C@H](C(=O)N[C@@H](C(=O)N[C@@H](Cc1c[nH]c2ccccc12)C(=O)N[C@H](CC(C)C)C(=O)N[C@@H](Cc1c[nH]c2ccccc12)C(=O)N[C@@H](C(=O)N[C@@H](Cc1c[nH]c2ccccc12)C(=O)N[C@H](CC(C)C)C(=O)N[C@@H](Cc1c[nH]c2ccccc12)C(=O)NCCO)C(C)C)[C@H](C)O)C(C)C)C(C)C [compound 1711] (For-VGA[dL]A[dV]V[dT]W[dL]W[dV]W[dL]W-NHCH2CH2OH) | 1.01 | - | 100
CNC(=O)C[C@@H](NC(=O)[C@@H](NC(=O)[C@H](NC(=O)[C@H](C)NC(=O)[C@@H](CC(C)C)NC(=O)[C@H](C)NC(=O)CNC(=O)[C@@H](NC=O)C(C)C)C(C)C)C(C)C)C(=O)N[C@@H](Cc1c[nH]c2ccccc12)C(=O)N[C@H](CC(C)C)C(=O)N[C@@H](Cc1c[nH]c2ccccc12)C(=O)N[C@@H](C(=O)N[C@@H](Cc1c[nH]c2ccccc12)C(=O)N[C@@H](C(=O)N[C@@H](Cc1c[nH]c2ccccc12)C(=O)NCCO)C(C)C)C(C)C [compound 2195] (For-VGA[dL]A[dV]V[dD](NHMe)W[dL]W[dV]W[dV]W-NHCH2CH2OH) | 1.34 | - | 100
CC(C)C[C@@H](NC(=O)[C@H](C)NC(=O)CNC(=O)[C@@H](NC=O)C(C)C)C(=O)N[C@@H](C)C(=O)N[C@@H](C(=O)N[C@H](C(=O)N[C@H](CC(C)C)C(=O)N[C@@H](Cc1c[nH]c2ccccc12)C(=O)N[C@@H](C(=O)N[C@@H](Cc1c[nH]c2ccccc12)C(=O)N[C@H](CC(C)C)C(=O)N[C@@H](Cc1c[nH]c2ccccc12)C(=O)N[C@H](CC(C)C)C(=O)N[C@@H](Cc1c[nH]c2ccccc12)C(=O)NCCO)C(C)C)C(C)C)[C@H](C)O [compound 611] (For-VGA[dL]A[dT]V[dL]W[dV]W[dL]W[dL]W-NHCH2CH2OH) | 1.05 | - | 100
CC(C)C[C@@H](NC(=O)[C@H](C)NC(=O)CNC(=O)[C@@H](NC=O)C(C)C)C(=O)N[C@@H](C)C(=O)N[C@@H](C(=O)N[C@H](C(=O)N[C@@H](C(=O)N[C@@H](Cc1c[nH]c2ccccc12)C(=O)N[C@@H](C(=O)N[C@@H](Cc1c[nH]c2ccccc12)C(=O)N[C@H](CC(C)C)C(=O)N[C@@H](Cc1c[nH]c2ccccc12)C(=O)N[C@H](CC(C)C)C(=O)N[C@@H](Cc1c[nH]c2ccccc12)C(=O)NCCO)C(C)C)[C@H](C)O)C(C)C)C(C)C [compound 2290] (For-VGA[dL]A[dV]V[dT]W[dV]W[dL]W[dL]W-NHCH2CH2OH) | 1.14 | - | 100
CC(C)C[C@@H](NC(=O)[C@H](C)NC(=O)[C@H](NC(=O)[C@H](C)NC(=O)CNC(=O)[C@@H](NC=O)C(C)C)C(C)C)C(=O)N[C@H](C(=O)N[C@@H](C(=O)N[C@@H](Cc1c[nH]c2ccccc12)C(=O)N[C@H](CC(C)C)C(=O)N[C@@H](Cc1c[nH]c2ccccc12)C(=O)N[C@H](CC(C)C)C(=O)N[C@@H](Cc1c[nH]c2ccccc12)C(=O)N[C@@H](C(=O)N[C@@H](Cc1c[nH]c2ccccc12)C(=O)NCCO)C(C)C)[C@H](C)O)C(C)C [compound 6160] (For-VGA[dV]A[dL]V[dT]W[dL]W[dL]W[dV]W-NHCH2CH2OH) | 1.07 | + | 70.3
CC(C)C[C@@H](NC(=O)[C@H](C)NC(=O)CNC(=O)[C@@H](NC=O)C(C)C)C(=O)N[C@@H](C)C(=O)N[C@@H](C(=O)N[C@H](C(=O)N[C@H](CC(C)C)C(=O)N[C@@H](Cc1c[nH]c2ccccc12)C(=O)N[C@@H](C(=O)N[C@@H](Cc1c[nH]c2ccccc12)C(=O)N[C@@H](C(=O)N[C@@H](Cc1c[nH]c2ccccc12)C(=O)N[C@H](CC(C)C)C(=O)N[C@@H](Cc1c[nH]c2ccccc12)C(=O)NCCO)C(C)C)C(C)C)C(C)C)C(C)C [compound 8051] (For-VGA[dL]A[dV]V[dL]W[dV]W[dV]W[dL]W-NHCH2CH2OH) | 1.13 | + | 16.8
CC(C)C[C@@H](NC(=O)[C@H](C)NC(=O)CNC(=O)[C@@H](NC=O)C(C)C)C(=O)N[C@@H](C)C(=O)N[C@H](CC(C)C)C(=O)N[C@H](C(=O)N[C@H](CC(C)C)C(=O)N[C@@H](Cc1c[nH]c2ccccc12)C(=O)N[C@H](CC(C)C)C(=O)N[C@@H](Cc1c[nH]c2ccccc12)C(=O)N[C@H](CC(C)C)C(=O)N[C@@H](Cc1c[nH]c2ccccc12)C(=O)N[C@H](CC(C)C)C(=O)N[C@@H](Cc1c[nH]c2ccccc12)C(=O)NCCO)C(C)C [compound 2904] (For-VGA[dL]A[dL]V[dL]W[dL]W[dL]W[dL]W-NHCH2CH2OH) | 1.09 | - | 12.5
CC(C)C[C@@H](NC(=O)[C@H](Cc1c[nH]c2ccccc12)NC(=O)[C@H](NC(=O)[C@H](Cc1c[nH]c2ccccc12)NC(=O)[C@H](NC(=O)[C@@H](NC(=O)[C@H](NC(=O)[C@H](C)NC(=O)[C@H](NC(=O)[C@H](C)NC(=O)CNC(=O)[C@@H](NC=O)C(C)C)C(C)C)C(C)C)C(C)C)C(C)C)[C@H](C)O)C(=O)N[C@@H](Cc1c[nH]c2ccccc12)C(=O)N[C@@H](C(=O)N[C@@H](Cc1c[nH]c2ccccc12)C(=O)NCCO)C(C)C [compound 2066] (For-VGA[dV]A[dV]V[dV]W[dT]W[dL]W[dV]W-NHCH2CH2OH) | 1.07 | - | 100
CC(C)C[C@@H](NC(=O)[C@H](C)NC(=O)CNC(=O)[C@@H](NC=O)C(C)C)C(=O)N[C@@H](C)C(=O)N[C@@H](C(=O)N[C@H](C(=O)N[C@H](CC(C)C)C(=O)N[C@@H](Cc1c[nH]c2ccccc12)C(=O)N[C@H](CC(C)C)C(=O)N[C@@H](Cc1c[nH]c2ccccc12)C(=O)N[C@@H](C(=O)N[C@@H](Cc1c[nH]c2ccccc12)C(=O)N[C@@H](C(=O)N[C@@H](Cc1c[nH]c2ccccc12)C(=O)NCCO)C(C)C)C(C)C)C(C)C)[C@H](C)O [compound 1898] (For-VGA[dL]A[dT]V[dL]W[dL]W[dV]W[dV]W-NHCH2CH2OH) | 1.07 | - | 100
CC(C)C[C@@H](NC(=O)[C@H](C)NC(=O)[C@H](NC(=O)[C@H](C)NC(=O)CNC(=O)[C@@H](NC=O)C(C)C)[C@H](C)O)C(=O)N[C@H](C(=O)N[C@H](CC(C)C)C(=O)N[C@@H](Cc1c[nH]c2ccccc12)C(=O)N[C@H](CC(C)C)C(=O)N[C@@H](Cc1c[nH]c2ccccc12)C(=O)N[C@@H](C(=O)N[C@@H](Cc1c[nH]c2ccccc12)C(=O)N[C@H](CC(C)C)C(=O)N[C@@H](Cc1c[nH]c2ccccc12)C(=O)NCCO)C(C)C)C(C)C [compound 789] (For-VGA[dT]A[dL]V[dL]W[dL]W[dV]W[dL]W-NHCH2CH2OH) | 1.08 | - | 100
CC(C)C[C@@H](NC(=O)[C@H](C)NC(=O)CNC(=O)[C@@H](NC=O)C(C)C)C(=O)N[C@@H](C)C(=O)N[C@@H](C(=O)N[C@H](C(=O)N[C@@H](C(=O)N[C@@H](Cc1c[nH]c2ccccc12)C(=O)N[C@@H](C(=O)N[C@@H](Cc1c[nH]c2ccccc12)C(=O)N[C@H](CC(C)C)C(=O)N[C@@H](Cc1c[nH]c2ccccc12)C(=O)N[C@@H](C(=O)N[C@@H](Cc1c[nH]c2ccccc12)C(=O)NCCO)C(C)C)[C@H](C)O)[C@H](C)O)C(C)C)C(C)C [compound 5747] (For-VGA[dL]A[dV]V[dT]W[dT]W[dL]W[dV]W-NHCH2CH2OH) | 1.09 | - | 100
CC(C)C[C@@H](NC(=O)[C@H](C)NC(=O)[C@H](NC(=O)[C@H](C)NC(=O)CNC(=O)[C@@H](NC=O)C(C)C)C(C)C)C(=O)N[C@H](C(=O)N[C@H](CC(C)C)C(=O)N[C@@H](Cc1c[nH]c2ccccc12)C(=O)N[C@H](CC(C)C)C(=O)N[C@@H](Cc1c[nH]c2ccccc12)C(=O)N[C@H](CC(C)C)C(=O)N[C@@H](Cc1c[nH]c2ccccc12)C(=O)N[C@H](CC(C)C)C(=O)N[C@@H](Cc1c[nH]c2ccccc12)C(=O)NCCO)C(C)C [compound 527] (For-VGA[dV]A[dL]V[dL]W[dL]W[dL]W[dL]W-NHCH2CH2OH) | 1.16 | ++ | 5.9
CC(C)C[C@@H](NC(=O)[C@H](Cc1c[nH]c2ccccc12)NC(=O)[C@H](NC(=O)[C@H](Cc1c[nH]c2ccccc12)NC(=O)[C@@H](CC(C)C)NC(=O)[C@H](Cc1c[nH]c2ccccc12)NC(=O)[C@@H](CC(C)C)NC(=O)[C@@H](NC(=O)[C@H](NC(=O)[C@H](C)NC(=O)[C@H](NC(=O)[C@H](C)NC(=O)CNC(=O)[C@@H](NC=O)C(C)C)[C@H](C)O)C(C)C)C(C)C)C(C)C)C(=O)N[C@@H](Cc1c[nH]c2ccccc12)C(=O)NCCO [compound 1509] (For-VGA[dT]A[dV]V[dL]W[dL]W[dV]W[dL]W-NHCH2CH2OH) | 1.10 | - | 100
